Results published in PubChem BioAssay (NCI).
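The compound was tested at five concentrations on cells cultured in 96-well plates, with a 48-hour exposure period. At the GI50, growth is halved. Definition used: TGI = concentration required for complete inhibition of growth.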

What was measured:
Experiment in all cases: inhibition of tumour cell growth, NCI panel, 48 h
M19-MEL melanoma = tested on: M19-MEL melanoma
XF 498 CNS = tested on: XF 498 CNS
RPMI-8226 leukemia = tested on: RPMI-8226 leukemia
HCC-2998 colon = tested on: HCC-2998 colon
DMS 273 small cell lung = tested on: DMS 273 small cell lung
NCI-H23 lung = tested on: NCI-H23 lung
OVCAR-5 ovarian = tested on: OVCAR-5 ovarian
NCI-H460 lung = tested on: NCI-H460 lung
NCI-H226 lung = tested on: NCI-H226 lung
OVCAR-8 ovarian = tested on: OVCAR-8 ovarian
OVCAR-4 ovarian = tested on: OVCAR-4 ovarian
COLO 205 colon = tested on: COLO 205 colon
DLD-1 colon = tested on: DLD-1 colon
ACHN renal = tested on: ACHN renal
OVCAR-3 ovarian = tested on: OVCAR-3 ovarian
HT29 colon = tested on: HT29 colon
UACC-257 melanoma = tested on: UACC-257 melanoma
DMS 114 small cell lung = tested on: DMS 114 small cell lung
HL-60(TB) leukemia = tested on: HL-60(TB) leukemia
A498 renal = tested on: A498 renal
HCT-15 colon = tested on: HCT-15 colon
M14 melanoma = tested on: M14 melanoma
MALME-3M melanoma = tested on: MALME-3M melanoma
HCT-116 colon = tested on: HCT-116 colon
IGROV1 ovarian = tested on: IGROV1 ovarian
HOP-62 NSCLC = tested on: HOP-62 NSCLC
SK-MEL-2 melanoma = tested on: SK-MEL-2 melanoma
EKVX NSCLC = tested on: EKVX NSCLC
SK-MEL-28 melanoma = tested on: SK-MEL-28 melanoma
UO-31 renal = tested on: UO-31 renal
TK-10 renal = tested on: TK-10 renal
U251 CNS = tested on: U251 CNS
NCI-H522 lung = tested on: NCI-H522 lung
A549 NSCLC = tested on: A549 NSCLC
KM20L2 colon = tested on: KM20L2 colon
CAKI-1 renal = tested on: CAKI-1 renal
UACC-62 melanoma = tested on: UACC-62 melanoma
LOX IMVI melanoma = tested on: LOX IMVI melanoma
786-0 renal = tested on: 786-0 renal
SNB-19 CNS = tested on: SNB-19 CNS
HOP-92 NSCLC = tested on: HOP-92 NSCLC
SN12C renal = tested on: SN12C renal
SF-295 CNS = tested on: SF-295 CNS
MOLT-4 leukemia = tested on: MOLT-4 leukemia
SK-OV-3 ovarian = tested on: SK-OV-3 ovarian
SW-620 colon = tested on: SW-620 colon
SF-539 CNS = tested on: SF-539 CNS
LXFL 529 NSCLC = tested on: LXFL 529 NSCLC
K-562 leukemia = tested on: K-562 leukemia
SK-MEL-5 melanoma = tested on: SK-MEL-5 melanoma
SNB-75 CNS = tested on: SNB-75 CNS
CCRF-CEM leukemia = tested on: CCRF-CEM leukemia
SF-268 CNS = tested on: SF-268 CNS
HOP-18 NSCLC = tested on: HOP-18 NSCLC
RXF 393 renal = tested on: RXF 393 renal
SNB-78 CNS = tested on: SNB-78 CNS
SR leukemia = tested on: SR leukemia
KM12 colon = tested on: KM12 colon

C[C-](O)O.O/C(=C\[C-](O)c1ccccc1)c1ccccc1.O/C(=C\[C-](O)c1ccccc1)c1ccccc1.[Nd+3] (configuration not stated)
GI50 (M19-MEL melanoma): 12.2 µM | TGI (M19-MEL melanoma): 42.7 µM | GI50 (XF 498 CNS): 13.8 µM | TGI (XF 498 CNS): 36.2 µM | GI50 (RPMI-8226 leukemia): 6.43 µM | TGI (RPMI-8226 leukemia): 33.5 µM | GI50 (HCC-2998 colon): 2.17 µM | TGI (HCC-2998 colon): 20.2 µM | GI50 (DMS 273 small cell lung): 3.25 µM | TGI (DMS 273 small cell lung): 16.1 µM | GI50 (NCI-H23 lung): 4.69 µM | TGI (NCI-H23 lung): 29.4 µM | GI50 (OVCAR-5 ovarian): 12.6 µM | TGI (OVCAR-5 ovarian): 33.1 µM | GI50 (NCI-H460 lung): 4.99 µM | TGI (NCI-H460 lung): 71 µM | GI50 (NCI-H226 lung): 1.24 µM | TGI (NCI-H226 lung): 7.93 µM | GI50 (OVCAR-8 ovarian): 4.48 µM | TGI (OVCAR-8 ovarian): 55 µM | GI50 (OVCAR-4 ovarian): 15.9 µM | TGI (OVCAR-4 ovarian): > 100 µM | GI50 (COLO 205 colon): 14.7 µM | TGI (COLO 205 colon): 36.3 µM | GI50 (DLD-1 colon): 9.17 µM | TGI (DLD-1 colon): 44.2 µM | GI50 (ACHN renal): 12 µM | TGI (ACHN renal): > 100 µM | GI50 (OVCAR-3 ovarian): 0.363 µM | TGI (OVCAR-3 ovarian): 27.4 µM | GI50 (HT29 colon): 10.6 µM | TGI (HT29 colon): 22.5 µM | GI50 (UACC-257 melanoma): 15.5 µM | TGI (UACC-257 melanoma): 42.3 µM | GI50 (DMS 114 small cell lung): 17.9 µM | TGI (DMS 114 small cell lung): 57 µM | GI50 (HL-60(TB) leukemia): 2.03 µM | TGI (HL-60(TB) leukemia): 8.7 µM | GI50 (A498 renal): 11.7 µM | TGI (A498 renal): 43.1 µM | GI50 (HCT-15 colon): 4.96 µM | TGI (HCT-15 colon): 20.1 µM | GI50 (M14 melanoma): 14.6 µM | TGI (M14 melanoma): 33.8 µM | GI50 (MALME-3M melanoma): 16.8 µM | TGI (MALME-3M melanoma): 65.9 µM | GI50 (HCT-116 colon): 4.24 µM | TGI (HCT-116 colon): 16.5 µM | GI50 (IGROV1 ovarian): 14.1 µM | TGI (IGROV1 ovarian): > 100 µM | GI50 (HOP-62 NSCLC): 3.1 µM | TGI (HOP-62 NSCLC): 15.7 µM | GI50 (SK-MEL-2 melanoma): 13.1 µM | TGI (SK-MEL-2 melanoma): 34.4 µM | GI50 (EKVX NSCLC): 8.09 µM | TGI (EKVX NSCLC): 55 µM | GI50 (SK-MEL-28 melanoma): 12.7 µM | TGI (SK-MEL-28 melanoma): 44.5 µM | GI50 (UO-31 renal): 3.73 µM | TGI (UO-31 renal): 16 µM | GI50 (TK-10 renal): 20.9 µM | TGI (TK-10 renal): 94.2 µM | GI50 (U251 CNS): 4.46 µM | TGI (U251 CNS): 22.1 µM | GI50 (NCI-H522 lung): 3.59 µM | TGI (NCI-H522 lung): 28.9 µM | GI50 (A549 NSCLC): 18.2 µM | TGI (A549 NSCLC): 48.9 µM | GI50 (KM20L2 colon): 5.76 µM | TGI (KM20L2 colon): 21 µM | GI50 (CAKI-1 renal): 11.9 µM | TGI (CAKI-1 renal): 42.2 µM | GI50 (UACC-62 melanoma): 6.56 µM | TGI (UACC-62 melanoma): 45.3 µM | GI50 (LOX IMVI melanoma): 4.28 µM | TGI (LOX IMVI melanoma): 17.7 µM | GI50 (786-0 renal): 9.65 µM | TGI (786-0 renal): 32.7 µM | GI50 (SNB-19 CNS): 7.83 µM | TGI (SNB-19 CNS): 50 µM | GI50 (HOP-92 NSCLC): 12.9 µM | TGI (HOP-92 NSCLC): 35.3 µM | GI50 (SN12C renal): 5.99 µM | GI50 (SF-295 CNS): 0.372 µM | TGI (SF-295 CNS): 19.4 µM | GI50 (MOLT-4 leukemia): 3.89 µM | TGI (MOLT-4 leukemia): 28.7 µM | GI50 (SK-OV-3 ovarian): 16.8 µM | TGI (SK-OV-3 ovarian): 64.7 µM | GI50 (SW-620 colon): 6.94 µM | TGI (SW-620 colon): > 100 µM | GI50 (SF-539 CNS): 5.5 µM | TGI (SF-539 CNS): 25.5 µM | GI50 (LXFL 529 NSCLC): 5.79 µM | TGI (LXFL 529 NSCLC): > 100 µM | GI50 (K-562 leukemia): 3.78 µM | TGI (K-562 leukemia): 16.4 µM | GI50 (SK-MEL-5 melanoma): 5.22 µM | TGI (SK-MEL-5 melanoma): 18 µM | GI50 (SNB-75 CNS): 1.77 µM | TGI (SNB-75 CNS): 6.35 µM | GI50 (CCRF-CEM leukemia): 2.21 µM | TGI (CCRF-CEM leukemia): 15.3 µM | GI50 (SF-268 CNS): 6.44 µM | TGI (SF-268 CNS): 32.5 µM

C=C1C(=O)OC2/C=C(\C=O)CC/C=C(\C)C(O)C[C@@H]12 (some centres not stated)
TGI (HOP-18 NSCLC): 31.2 µM | TGI (M19-MEL melanoma): 19.2 µM | TGI (XF 498 CNS): 16.1 µM | TGI (RPMI-8226 leukemia): 8.69 µM | TGI (HCC-2998 colon): 31.7 µM | TGI (DMS 273 small cell lung): 15.7 µM | TGI (NCI-H23 lung): 17.7 µM | TGI (OVCAR-5 ovarian): 38.2 µM | TGI (NCI-H460 lung): 27.4 µM | TGI (NCI-H226 lung): 43.9 µM | TGI (OVCAR-8 ovarian): 12 µM | TGI (RXF 393 renal): 7.46 µM | TGI (OVCAR-4 ovarian): 27.5 µM | TGI (COLO 205 colon): 15.3 µM | TGI (DLD-1 colon): 8.93 µM | TGI (ACHN renal): 19.9 µM | TGI (OVCAR-3 ovarian): 14.5 µM | TGI (HT29 colon): 11.6 µM | TGI (UACC-257 melanoma): 18 µM | TGI (DMS 114 small cell lung): 26.6 µM | TGI (HL-60(TB) leukemia): > 21.4 µM | TGI (A498 renal): 22.1 µM | TGI (HCT-15 colon): 14.9 µM | TGI (M14 melanoma): 12.4 µM | TGI (MALME-3M melanoma): 22.2 µM | TGI (HCT-116 colon): 3.46 µM | TGI (IGROV1 ovarian): 32.3 µM | TGI (HOP-62 NSCLC): 61.3 µM | TGI (SK-MEL-2 melanoma): 25 µM | TGI (EKVX NSCLC): 29.1 µM | TGI (SK-MEL-28 melanoma): 15.7 µM | TGI (UO-31 renal): 26.8 µM | TGI (TK-10 renal): 24.7 µM | TGI (U251 CNS): 35.4 µM | TGI (NCI-H522 lung): 3.41 µM | TGI (A549 NSCLC): 33.9 µM | TGI (KM20L2 colon): 22.4 µM | TGI (UACC-62 melanoma): 18.5 µM | TGI (LOX IMVI melanoma): 18.5 µM | TGI (SNB-78 CNS): 18.8 µM | TGI (786-0 renal): 11.6 µM | TGI (SNB-19 CNS): 29.1 µM | TGI (HOP-92 NSCLC): 17.2 µM | TGI (SN12C renal): 14.5 µM | TGI (SF-295 CNS): 28.3 µM | TGI (MOLT-4 leukemia): 21.4 µM | TGI (SK-OV-3 ovarian): 52.5 µM | TGI (SW-620 colon): 10.9 µM | TGI (SR leukemia): > 27.6 µM | TGI (SF-539 CNS): 27.2 µM | TGI (KM12 colon): 18.5 µM | TGI (LXFL 529 NSCLC): 13.6 µM | TGI (K-562 leukemia): > 36.1 µM | TGI (SK-MEL-5 melanoma): 22.4 µM | TGI (SNB-75 CNS): 29 µM | TGI (CCRF-CEM leukemia): > 26.5 µM | TGI (SF-268 CNS): 14.7 µM
